Laboratory results reported in patent US20230263822A1, “MODULATION OF FACTOR 11 EXPRESSION” (Ionis Pharmaceuticals, Inc., priority 2008, published 2023).
Strand notation (5' to 3'): a small letter for the sugar, then the base; units joined by * are phosphorothioate-linked, units joined directly phosphodiester-linked; [ ] holds rarer units or linkages, { } end groups; capitals alone tell only the bases. e = 2'-O-(2-methoxyethyl) (MOE); [5mC] = 5-methylcytosine; d = 2'-deoxy (DNA)

Assays:
[1] = Tolerability in CD1 mice: kidney function, BUN (Example 41); conditions: 50 mg/kg s.c. twice per week for 6 weeks, plasma
[2] = Tolerability in CD1 mice: body weight and organ weight (Example 41); conditions: 50 mg/kg s.c. twice per week for 6 weeks; for body weight: increase in grams over the PBS control weight taken before the start of treatment; for Kidney weight / Liver weight / Spleen weight: percentage of the body weight
[3] = Tolerability in CD1 mice: hematology assays (Example 41); conditions: 50 mg/kg s.c. twice per week for 6 weeks, blood
[4] = Kidney function, urine protein to creatinine ratio in cynomolgus monkeys (Example 45); type: in vivo
Description: (§1) Groups, each consisting of two male and three female monkeys, were injected subcutaneously with ISIS 416838, ISIS 416850, ISIS 416858, ISIS 416864, or ISIS 417002 in escalating doses. Antisense oligonucleotide was administered to the monkeys at 5 mg/kg three times per a week for week 1; 5 mg/kg twice per week for weeks 2 and 3; 10 mg/kg three times per week for week 4; 10 mg/kg twice per week for weeks 5 and 6; 25 mg/kg three times per week for week 7; and 25 mg/kg twice per week for weeks 8, 9, 10, 11, and 12. One control group, consisting of two male and three female monkeys, was injected subcutaneously with PBS according to the same dosing regimen. An additional experimental group, consisting of two male and three female monkeys, was injected subcutaneously with ISIS 416850 in a chronic, lower dose regimen. Antisense oligonucleotide was administered to the monkeys at 5 mg/kg three times per week for week 1; 5 mg/kg twice per week for week 2 and 3; 10 mg/kg three times per week for week 4; and 10 mg/kg twice per week for weeks 5 to 12. Body weights were measured weekly. Blood samples were collected 14 days and 5 days before the start of treatment and subsequently once per week for Factor 11 protein activity analysis in plasma, fibrinogen measurement, PT and aPTT measurements, bleeding times, and measurement of various hematologic factors. On day 85, the monkeys were euthanized by exsanguination while under deep anesthesia, and organs harvested for further analysis.
To evaluate the impact of ISIS oligonucleotides on kidney function, urine samples were collected.

platelet aggregation = test: Platelet aggregation assay, ADP and/or collagen (Example 45); type: in vivo, cynomolgus monkeys
Description: as §1
Platelet aggregation was initiated by adding 1 mmol/L ADP and/or 3 μg collagen (depending on the collection day, as outlined in Table 121) to plasma samples, and was allowed to proceed for 10 minutes. Aggregation was characterized by recording the change in the electrical resistance or impedance and the change in the initial slope of aggregation after platelet shape change. The aggregation test was performed twice per sample on each collection day and the average value was taken. The ISIS oligonucleotide, ISIS 416850, given with the chronic dose regimen is distinguished from the other oligonucleotides with an asterisk (*).

With “ISIS 445522: 5-8-5 or 6-8-6 MOE microwalk gapmer (Table 44) (antisense eG*e[5mC]*eA*e[5mC]*eA*dG*dT*dT*dT*d[5mC]*dT*dG*dG*e[5mC]*eA*eG*eG*e[5mC])” the BUN [1] was 28 mg/dL, the body weight [2] was 11 g and the Kidney weight [2] was 1.7%. It also gave a Liver weight [2] of 6%, a Spleen weight [2] of 0.4% and an HCT [3] of 49%. It also gave a Lymphocyte [3] of 3997, a Neutrophil [3] of 698 and a Platelets [3] of 1005. For the same substance, the RBC [3] was 9.7, the WBC [3] was 5 and the hemoglobin [3] was 14.6 g/dL.

For “ISIS 416850: MOE gapmer, nucleobases 1275 to 1318 of SEQ ID NO: 1 (Table 8) (antisense TGCACAGTTTCTGGCAGGCC; MOE gapmer, wing and gap sizes not given here)”, the BUN [1] was 28 mg/dL, the “urine protein to creatinine ratio” value ([4]; Day 80) was 0.09 and the “urine protein to creatinine ratio” value ([4]; Day 84) was 0.12. For the same substance, the body weight [2] was 11 g, the Kidney weight [2] was 1.5% and the Liver weight [2] was 6%. The Spleen weight [2] was 0.4%, the platelet aggregation (platelet aggregation; day 15 (with ADP), chronic dose regimen (*)) was 14 Ohms and the platelet aggregation (platelet aggregation; day 15 (with ADP), escalating dose regimen) was 12 Ohms. It also gave a platelet aggregation (platelet aggregation; day 36 (with ADP), chronic dose regimen (*)) of 11.6 Ohms, a platelet aggregation (platelet aggregation; day 36 (with ADP), escalating dose regimen) of 16 Ohms and a platelet aggregation (platelet aggregation; day 43 (with collagen), chronic dose regimen (*)) of 21 Ohms. It also gave a platelet aggregation (platelet aggregation; day 43 (with collagen), escalating dose regimen) of 16 Ohms, a platelet aggregation (platelet aggregation; day 57 (with ADP), escalating dose regimen) of 18 Ohms and a platelet aggregation (platelet aggregation; day 64 (with collagen), escalating dose regimen) of 17 Ohms. It also gave a platelet aggregation (platelet aggregation; day 78 (with ADP), escalating dose regimen) of 9 Ohms, a platelet aggregation (platelet aggregation; day 85 (with ADP), escalating dose regimen) of 22 Ohms and a platelet aggregation (platelet aggregation; day 85 (with collagen), escalating dose regimen) of 26 Ohms. It also gave a platelet aggregation (platelet aggregation; day −5 (with collagen), chronic dose regimen (*)) of 21 Ohms, a platelet aggregation (platelet aggregation; day −5 (with collagen), escalating dose regimen) of 23 Ohms and an HCT [3] of 50%. For the same substance, the Lymphocyte [3] was 4710, the Neutrophil [3] was 1314 and the Platelets [3] was 614. For the same substance, the RBC [3] was 9.8, the WBC [3] was 6 and the hemoglobin [3] was 14.8 g/dL.
